The test system of assay [1] is Candida albicans ATCC 10231. Nature of the assay: Antimicrobial assay I, modified protocol (tryptic soy broth), MFC. Conditions: minimum fungicidal concentration, Table 4.
Method: (§1) The preparation of all media, stock solutions, and dilutions took place in a laminar flow hood to prevent contamination. Bacterial cells were freshly grown on antibiotic medium 2 agar slants (pH 7.0 at 25° C.). Bacteria were suspended and diluted in antibiotic medium 3 to about 10^4 cfu/ml and used as the inoculum. Sample solutions (100 μl/well) were added to plates according to the plate layout. Inoculum (100 μl/well) was added to achieve a final concentration of 5×10^3 cfu/ml. Negative controls received 100 μl saline and 100 μl growth medium. Positive controls received 100 μl saline and 100 μl inoculum. Bacterial plates were incubated at 37° C. for 24 hours.
(§2) However, the data for Table 4 were obtained with a modified protocol wherein the medium was tryptic soy broth, inocolum strength was approximately 10^4 CFU per ml, and values determined were minimum bactericidal concentrations (MBC) or minimum fungicidal concentrations (MFC).
(§3) MBC or MFC values are in μg/mL. E. coli is Escherichia coli ATCC accession number 25922; P. aerug is Pseudomonas aeruginosa ATCC accession number 27853, S. aur. is Stapholococcus aureus ATCC accession number 25923; Candida is Candida albicans ATCC accession number 10231.
For assay [2], the system named is Pseudomonas aeruginosa ATCC 27853. Nature of the assay: Antimicrobial assay I, modified protocol (tryptic soy broth), MBC. Conditions: minimum bactericidal concentration, Table 4.
Method: as §1, §2, §3
Assay [3] concerns Escherichia coli ATCC 25922. The assay is described as above. Conditions: minimum bactericidal concentration, Table 4.
Assay [4] concerns Stapholococcus aureus ATCC 25923. The description is as above. The settings on record: minimum bactericidal concentration, Table 4.

Converted amounts (≈) assume the structure as drawn. No end group written: not given here. Where only a bound is given, the exact number is not on record here.

“FAKAIAKIAFGKGIGKVGKKLL-NH2 [compound 134]”: the “MFC Candida A.10231” value in assay [1] is recorded as “INACT”. The “MBC P. aerug A.27853” value in assay [2] was “INACT”. Moreover, the “MBC E. coli A.25922” value in assay [3] is “INACT”. Further, the “MBC S. aur A.25923” value in assay [4] is reported as “INACT”.
For the molecule FAKLLAKLAKKIL-NH2 [compound 125], the “MFC Candida A.10231” value in assay [1] amounted to 40 µg/mL. The “MBC P. aerug A.27853” value in assay [2] worked out at 40 µg/mL. The “MBC E. coli A.25922” value in assay [3] was 40 µg/mL. Moreover, the “MBC S. aur A.25923” value in assay [4] is “INACT”.
Take `CC(C)C[C@H](NC(=O)[C@H](CCCCN)NC(=O)[C@H](CC(C)C)NC(=O)[C@H](Cc1c[nH]c2ccccc12)NC(=O)[C@H](CCCCN)NC(=O)[C@H](CCCCN)NC(=O)[C@H](C)NC(=O)[C@H](Cc1c[nH]c2ccccc12)NC(=O)[C@H](CCCCN)NC(=O)[C@H](CCCCN)NC(=O)[C@H](Cc1c[nH]c2ccccc12)NC(=O)[C@H](CC(C)C)NC(=O)[C@@H](N)CCCCN)C(=O)N[C@@H](Cc1c[nH]c2ccccc12)C(=O)N[C@@H](CCCCN)C(=O)N[C@@H](C)C(=O)O` [compound 164]: the “MFC Candida A.10231” value in assay [1] came to 25 µg/mL (≈ 11.7 µM). Further, the “MBC P. aerug A.27853” value in assay [2] worked out at 25 µg/mL (≈ 11.7 µM). Moreover, the “MBC E. coli A.25922” value in assay [3] stood at 25 µg/mL (≈ 11.7 µM). Besides, the “MBC S. aur A.25923” value in assay [4] amounted to 25 µg/mL (≈ 11.7 µM).
For `CC(C)C[C@H](NC(=O)[C@H](CCCCN)NC(=O)[C@H](CCCCN)NC(=O)[C@H](C)NC(=O)[C@H](CC(C)C)NC(=O)[C@H](CCCCN)NC(=O)[C@H](C)NC(=O)[C@H](CCCCN)NC(=O)[C@H](CCCCN)NC(=O)[C@H](C)NC(=O)[C@H](CC(C)C)NC(=O)[C@H](CCCCN)NC(=O)[C@H](CCCCN)NC(=O)[C@H](C)NC(=O)[C@@H](N)Cc1ccccc1)C(N)=O` [compound 77], in assay [1], the “MFC Candida A.10231” value was >50 µg/mL. In assay [2], the “MBC P. aerug A.27853” value was >50 µg/mL. In addition, the “MBC E. coli A.25922” value in assay [3] is >50 µg/mL. Moreover, the “MBC S. aur A.25923” value in assay [4] is >50 µg/mL.
Turning to `CC(C)C[C@H](NC(=O)[C@H](CCCCN)NC(=O)[C@H](C)NC(=O)[C@H](CC(C)C)NC(=O)[C@H](CC(C)C)NC(=O)[C@H](CCCCN)NC(=O)[C@H](C)NC(=O)[C@@H](N)Cc1ccccc1)C(=O)N[C@@H](C)C(=O)N[C@@H](CCCCN)C(=O)N[C@@H](CCCCN)C(=O)N[C@@H](C)C(=O)N[C@@H](C)C(N)=O` [compound 93], in assay [1], the “MFC Candida A.10231” value is >50 µg/mL. Also, the “MBC P. aerug A.27853” value in assay [2] is >50 µg/mL. Also, the “MBC E. coli A.25922” value in assay [3] is >50 µg/mL. The “MBC S. aur A.25923” value in assay [4] is >50 µg/mL.
For KWKLAKKALALL-NH2 [compound 142], in assay [1], the “MFC Candida A.10231” value was “INACT”. In assay [2], the “MBC P. aerug A.27853” value is “INACT”. Besides, in assay [3], the “MBC E. coli A.25922” value is “INACT”. The “MBC S. aur A.25923” value in assay [4] is recorded as “INACT”.
For the molecule `CC(C)C[C@H](NC(=O)[C@H](CCCCN)NC(=O)[C@H](CCCCN)NC(=O)[C@H](Cc1c[nH]c2ccccc12)NC(=O)[C@@H](N)CCCCN)C(=O)N[C@@H](C)C(=O)N[C@@H](CCCCN)C(=O)N[C@@H](CCCCN)C(=O)N[C@@H](Cc1c[nH]c2ccccc12)C(=O)O` [compound 162], the “MFC Candida A.10231” value in assay [1] is 100 µg/mL (≈ 82.3 µM). For the same molecule, the “MBC P. aerug A.27853” value in assay [2] was >250 µg/mL. The “MBC E. coli A.25922” value in assay [3] turned out to be 50 µg/mL (≈ 41.1 µM). Besides, the “MBC S. aur A.25923” value in assay [4] is >250 µg/mL.
For KWKLF-NH2 [compound 131], in assay [1], the “MFC Candida A.10231” value is “INACT”. Further, the “MBC P. aerug A.27853” value in assay [2] is recorded as “INACT”. Further, the “MBC E. coli A.25922” value in assay [3] was “INACT”. In addition, in assay [4], the “MBC S. aur A.25923” value is “INACT”.
On to `CC(C)C[C@H](NC(=O)[C@H](CCCCN)NC(=O)[C@H](CC(C)C)NC(=O)[C@H](CCCCN)NC(=O)[C@H](CC(C)C)NC(=O)[C@H](C)NC(=O)[C@H](CCCCN)NC(=O)[C@H](C)NC(=O)[C@H](CC(C)C)NC(=O)[C@H](CC(C)C)NC(=O)[C@H](CCCCN)NC(=O)[C@H](C)NC(=O)[C@@H](N)Cc1ccccc1)C(N)=O` [compound 101], for which the “MFC Candida A.10231” value in assay [1] worked out at 40 µg/mL (≈ 27.5 µM). For the same molecule, the “MBC P. aerug A.27853” value in assay [2] was >50 µg/mL. For the same molecule, the “MBC E. coli A.25922” value in assay [3] was 300 µg/mL (≈ 206 µM). The “MBC S. aur A.25923” value in assay [4] is >50 µg/mL.
In the case of FAKLLFKALKKAL-NH2 [compound 112], the “MFC Candida A.10231” value in assay [1] is “INACT”. Further, in assay [2], the “MBC P. aerug A.27853” value is “INACT”. For the same molecule, the “MBC E. coli A.25922” value in assay [3] came out at 30 µg/mL. Further, the “MBC S. aur A.25923” value in assay [4] is “INACT”.
For “FAKLWAKLAFGKGIGKVGKKLL-NH2 [compound 135]”, in assay [1], the “MFC Candida A.10231” value came out at 25 µg/mL. In addition, the “MBC P. aerug A.27853” value in assay [2] was determined as 40 µg/mL. In assay [3], the “MBC E. coli A.25922” value was “INACT”. Further, in assay [4], the “MBC S. aur A.25923” value is reported as “INACT”.
Regarding FAKLLAKLAKKFAL-NH2 [compound 120], the “MFC Candida A.10231” value in assay [1] is “INACT”. The “MBC P. aerug A.27853” value in assay [2] is “INACT”. The “MBC E. coli A.25922” value in assay [3] is “INACT”. Besides, the “MBC S. aur A.25923” value in assay [4] was “INACT”.
Regarding FAFAKIIAKIAKKII-NH2 [compound 140], in assay [1], the “MFC Candida A.10231” value is “INACT”. Also, in assay [2], the “MBC P. aerug A.27853” value is reported as “INACT”. Besides, the “MBC E. coli A.25922” value in assay [3] is given as “INACT”. For the same molecule, the “MBC S. aur A.25923” value in assay [4] is on record as “INACT”.
As to `CC(C)C[C@H](NC(=O)[C@H](C)NC(=O)[C@H](CCCCN)NC(=O)[C@H](C)NC(=O)[C@H](CC(C)C)NC(=O)[C@H](CCCCN)NC(=O)[C@H](C)NC(=O)[C@H](CC(C)C)NC(=O)[C@H](CCCCN)NC(=O)[C@H](C)NC(=O)[C@H](CC(C)C)NC(=O)[C@H](CCCCN)NC(=O)[C@H](CCCCN)NC(=O)[C@H](C)NC(=O)[C@H](CC(C)C)NC(=O)[C@@H](N)CCCCN)C(N)=O` [compound 159], the “MFC Candida A.10231” value in assay [1] came to 50 µg/mL (≈ 29.3 µM). For the same molecule, the “MBC P. aerug A.27853” value in assay [2] is 10 µg/mL (≈ 5.86 µM). Moreover, the “MBC E. coli A.25922” value in assay [3] is 10 µg/mL (≈ 5.86 µM). In addition, the “MBC S. aur A.25923” value in assay [4] was >250 µg/mL.
As for `CC(C)C[C@H](NC(=O)[C@H](CCCCN)NC(=O)[C@H](CCCCN)NC(=O)[C@H](Cc1c[nH]c2ccccc12)NC(=O)[C@@H](N)CCCCN)C(N)=O` [compound 173], the “MFC Candida A.10231” value in assay [1] stood at 150 µg/mL (≈ 214 µM). Moreover, the “MBC P. aerug A.27853” value in assay [2] was >250 µg/mL. In assay [3], the “MBC E. coli A.25922” value was >250 µg/mL. For the same molecule, the “MBC S. aur A.25923” value in assay [4] was >250 µg/mL.
Regarding `CC(C)C[C@H](NC(=O)[C@H](CCCCN)NC(=O)[C@H](C)NC(=O)[C@H](CC(C)C)NC(=O)[C@H](CC(C)C)NC(=O)[C@H](CCCCN)NC(=O)[C@H](C)NC(=O)[C@@H](N)Cc1ccccc1)C(=O)N[C@@H](C)C(=O)N[C@@H](CCCCN)C(=O)N[C@@H](CCCCN)C(N)=O` [compound 151], the “MFC Candida A.10231” value in assay [1] was 100 µg/mL (≈ 81.3 µM). In addition, in assay [2], the “MBC P. aerug A.27853” value is >250 µg/mL. Further, the “MBC E. coli A.25922” value in assay [3] was >250 µg/mL. Besides, the “MBC S. aur A.25923” value in assay [4] was >250 µg/mL.
With `CC(C)C[C@H](NC(=O)CNC(=O)[C@H](CCCCN)NC(=O)[C@H](CCCCN)NC(=O)[C@H](C)NC(=O)[C@H](CC(C)C)NC(=O)[C@H](CCCCN)NC(=O)[C@H](C)NC(=O)[C@H](CC(C)C)NC(=O)[C@H](CC(C)C)NC(=O)[C@H](CCCCN)NC(=O)[C@H](C)NC(=O)[C@@H](N)Cc1ccccc1)C(N)=O` [compound 152], in assay [1], the “MFC Candida A.10231” value came to 50 µg/mL (≈ 35.7 µM). Further, the “MBC P. aerug A.27853” value in assay [2] was determined as 150 µg/mL (≈ 107 µM). For the same molecule, the “MBC E. coli A.25922” value in assay [3] is 150 µg/mL (≈ 107 µM). Also, the “MBC S. aur A.25923” value in assay [4] is >250 µg/mL.
Turning to FAFGKGIGKIGKKGL-NH2 [compound 138], the “MFC Candida A.10231” value in assay [1] is reported as “INACT”. The “MBC P. aerug A.27853” value in assay [2] was “INACT”. Besides, in assay [3], the “MBC E. coli A.25922” value is “INACT”. Moreover, the “MBC S. aur A.25923” value in assay [4] is listed as “INACT”.
